Experiments:
Mtb proteasome = biological target: T1, Mtb proteasome (Mycobacterium tuberculosis, UniProt P9WHT9); assay: biochemical; assay type: biochemical; conditions: for IC50: 50 µM Suc-LLVY-AMC, 30 min preincubation, 37 °C, triplicate, read-out: IC50 against the Mtb proteasome; for Hill Coefficient: from IC50 curve, Mtb proteasome
T1 construct: made in house

ß5i of IP = conditions: cited from earlier work; for RA at 10 µM against ß5i of IP: residual activity of β5i in the presence of 10 μM compound; for Ki: read-out: Ki against ß5i of IP; for IC50: read-out: IC50 against ß5i of IP

T1 sequence (P9WHT9 whole entry, looked up): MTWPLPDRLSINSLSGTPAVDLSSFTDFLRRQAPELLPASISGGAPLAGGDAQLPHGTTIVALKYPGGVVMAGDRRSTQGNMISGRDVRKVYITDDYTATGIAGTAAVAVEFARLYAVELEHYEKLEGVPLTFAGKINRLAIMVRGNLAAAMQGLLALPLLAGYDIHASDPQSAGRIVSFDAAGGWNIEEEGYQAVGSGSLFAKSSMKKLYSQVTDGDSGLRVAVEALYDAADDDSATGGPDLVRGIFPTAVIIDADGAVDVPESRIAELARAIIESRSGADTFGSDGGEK

Row | Structure (SMILES) | RA at 100 µM against Mtb (Mtb proteasome) [%] | RA at 10 µM against ß5i of IP (ß5i of IP) [%] | IC50 (Mtb proteasome) [nM] | Hill Coefficient (Mtb proteasome) | Ki (ß5i of IP) [nM] | IC50 (ß5i of IP) [nM]
1 | Cc1c(CNC(=O)CC#N)c(=O)oc2cc3occ(-c4ccccc4)c3cc12 [Compound 81] | 100 | 101 | – | – | – | –
2 | Cc1c(C(=O)O)c(=O)oc2cc3occ(-c4ccccc4)c3cc12 [Compound 6] | – | 82 | 2200 ± 300 | 0.70 | – | –
3 | COc1ccc(-c2coc3c(C)c4oc(=O)c(CCC(=O)O)c(C)c4cc23)cc1 [Compound 37] | 87 | 87 | – | – | – | –
4 | Cc1coc2cc3oc(=O)c(CCC(=O)ON4C(=O)CCC4=O)c(C)c3cc12 [Compound 71] | 97 | 66 | – | – | – | –
5 | Cc1c(CCC(=O)N(C)CC#N)c(=O)oc2cc3occ(-c4ccco4)c3cc12 [Compound 44] | 82 | 86 | – | – | – | –
6 | Cc1cc(-c2coc3cc4oc(=O)c(CCC(=O)O)c(C)c4cc23)c(C)o1 [Compound 23] | 76 | 100 | – | – | – | –
7 | Cc1c(CCC(=O)NCC#N)c(=O)oc2cc3occ(-c4ccccc4)c3cc12 [Compound 9] | – | 66 | 2000 ± 2000 | 2.27 | – | –
8 | COc1cccc(-c2coc3cc4oc(=O)c(CC(=O)O)c(C)c4cc23)c1 [Compound 27] | 98 | – | – | – | 7000 ± 200 | –
9 | Cc1c(CC(=O)ON2C(=O)CCC2=O)c(=O)oc2cc3occ(-c4ccc(Br)cc4)c3cc12 [Compound 74] | 61 | 101 | – | – | – | –
10 | Cc1c(CCC(=O)O)c(=O)oc2cc3occ(-c4ccc(Cl)cc4)c3cc12 [Compound 2] | – | 83 | 15000 ± 2000 | 1.75 | – | –
11 | Cc1c(CC(=O)O)c(=O)oc2cc3occ(-c4ccco4)c3cc12 [Compound 31] | 79 | – | – | – | 89300 ± 2000 | –
12 | Cc1c(CCC(=O)ON2C(=O)CCC2=O)c(=O)oc2cc3occ(C(C)(C)C)c3cc12 [Compound 70] | 70 | 41 | – | – | – | –
13 | Cc1c(CCC(=O)ON2C(=O)CCC2=O)c(=O)oc2cc3c(cc12)C(c1ccccc1)CO3 (racemic) [Compound 92] | 95 | 36 | – | – | – | –
14 | Cc1c(Cc2nsc(=O)o2)c(=O)oc2cc3occ(-c4ccccc4)c3cc12 [Compound 89] | 65 | – | – | – | – | 120 ± 50
15 | Cc1c(CCC(=O)N(C)CC#N)c(=O)oc2cc3occ(C4CCCCC4)c3cc12 [Compound 45] | 92 | 111 | – | – | – | –
16 | COc1cccc(-c2coc3cc4oc(=O)c(CCC(=O)O)c(C)c4cc23)c1 [Compound 18] | 100 | – | – | – | 29600 ± 3900 | –
17 | COc1ccc(-c2coc3cc4oc(=O)c(CCC(=O)ON5C(=O)CCC5=O)c(C)c4cc23)cc1 [Compound 68] | 93 | – | – | – | – | 640 ± 130
18 | Cc1c(CC(=O)O)c(=O)oc2cc3occ(-c4ccccc4)c3cc12 [Compound 25] | 96 | – | – | – | 2400 ± 400 | –
19 | Cc1c(CCC(=O)NCC#N)c(=O)oc2cc3occ(-c4ccco4)c3cc12 [Compound 49] | 100 | 97 | – | – | – | –
20 | Cc1cc(-c2coc3cc4oc(=O)c(CC(=O)N(C)CC#N)c(C)c4cc23)c(C)o1 [Compound 57] | 100 | 96 | – | – | – | –
21 | Cc1cc(-c2coc3cc4oc(=O)c(CCC(=O)ON5C(=O)CCC5=O)c(C)c4cc23)c(C)s1 [Compound 72] | 95 | – | – | – | – | 1800 ± 800
22 | Cc1c(CCC(=O)ON2C(=O)CCC2=O)c(=O)oc2cc3occ(-c4ccccc4)c3cc12 [Compound 66] | 66 | – | – | – | – | 9 ± 2
23 | Cc1coc2cc3oc(=O)c(CCC(=O)N(C)CC#N)c(C)c3cc12 [Compound 42] | 99 | 93 | – | – | – | –
24 | Cc1cc(-c2coc3cc4oc(=O)c(CC(=O)O)c(C)c4cc23)c(C)o1 [Compound 32] | 100 | – | – | – | 351000 ± 48000 | –
25 | Cc1c(CCC(=O)NCC#N)c(=O)oc2cc3occ(C4CCCCC4)c3cc12 [Compound 50] | 96 | 102 | – | – | – | –
26 | Cc1cc(-c2coc3cc4oc(=O)c(CCC(=O)NCC#N)c(C)c4cc23)c(C)s1 [Compound 48] | 100 | 109 | – | – | – | –
27 | Cc1c(CCC(=O)O)c(=O)oc2cc3occ(C4CCCCC4)c3cc12 [Compound 24] | 71 | 102 | – | – | – | –
28 | Cc1c(CC(=O)NCC#N)c(=O)oc2cc3occ(-c4ccccc4)c3cc12 [Compound 59] | 92 | 101 | – | – | – | –
29 | Cc1coc2cc3oc(=O)c(CC(=O)N(C)CC#N)c(C)c3cc12 [Compound 54] | 95 | 99 | – | – | – | –

From article PMC7144120, “Psoralen Derivatives as Inhibitors of Mycobacterium tuberculosis Proteasome” (Molecules, 2020)
